The values that follow come from ChEMBL document CHEMBL1132238, “A peptide agonist acts by occupation of a monomeric G protein-coupled receptor: dual sites of covalent attachment to domains near TM1 and TM7 of the same molecule make biologically significant domain-swapped dimerization unlikely” (J Med Chem, 1999).

The test concerns the target T1, Cholecystokinin receptor (Homo sapiens, UniProt P32239+P32238).
T1 sequence (P32239 whole entry): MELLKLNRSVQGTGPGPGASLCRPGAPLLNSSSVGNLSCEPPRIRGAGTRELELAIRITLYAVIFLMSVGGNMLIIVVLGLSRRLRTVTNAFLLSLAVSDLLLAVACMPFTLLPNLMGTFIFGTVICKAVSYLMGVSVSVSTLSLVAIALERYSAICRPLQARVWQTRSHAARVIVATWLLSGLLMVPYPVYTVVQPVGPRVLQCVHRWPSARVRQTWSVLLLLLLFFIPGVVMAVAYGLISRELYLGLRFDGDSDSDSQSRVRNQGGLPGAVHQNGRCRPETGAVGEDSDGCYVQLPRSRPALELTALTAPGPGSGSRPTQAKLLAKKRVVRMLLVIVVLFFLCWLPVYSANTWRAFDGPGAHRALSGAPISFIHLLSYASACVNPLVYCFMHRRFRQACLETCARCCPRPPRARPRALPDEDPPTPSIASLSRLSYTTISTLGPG
T1 sequence (P32238 whole entry): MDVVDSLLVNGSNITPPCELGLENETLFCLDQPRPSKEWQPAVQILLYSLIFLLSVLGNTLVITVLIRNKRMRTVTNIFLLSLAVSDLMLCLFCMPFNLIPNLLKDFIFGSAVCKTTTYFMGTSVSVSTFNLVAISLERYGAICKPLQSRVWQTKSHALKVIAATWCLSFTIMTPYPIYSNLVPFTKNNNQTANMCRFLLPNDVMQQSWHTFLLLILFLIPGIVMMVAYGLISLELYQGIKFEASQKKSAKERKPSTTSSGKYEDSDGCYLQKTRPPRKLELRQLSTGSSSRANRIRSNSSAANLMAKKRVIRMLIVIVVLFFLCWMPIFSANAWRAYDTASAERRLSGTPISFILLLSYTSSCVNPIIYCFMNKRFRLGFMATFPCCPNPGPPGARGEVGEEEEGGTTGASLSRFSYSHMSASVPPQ
Nature of the test: Ability to stimulate intracellular calcium response was determined using CCK receptor-bearing chinese hamster ovary cell line. The class given is functional, cell-based, Cricetulus griseus.
In the case of `CCCC[C@H](NC(=O)[C@H](Cc1c[nH]c2ccccc12)NC(=O)[C@H](Cc1ccc(C(=O)c2ccccc2)cc1)NC(=O)[C@H](CCCC)NC(=O)[C@H](Cc1ccc(OS(=O)(=O)O)cc1)NC(=O)[C@H](CC(=O)O)NC(=O)CNC(=O)[C@H](N)Cc1ccc(O)cc1)C(=O)N[C@@H](CC(=O)O)C(=O)N[C@@H](Cc1ccccc1)C(N)=O`, the EC50 (usually the concentration that produces a half-maximal response) amounted to 28 nM. Regarding `CCCC[C@H](NC(=O)[C@H](Cc1c[nH]c2ccccc12)NC(=O)[C@H](Cc1ccc(C(=O)c2ccccc2)cc1)NC(=O)[C@H](CCCC)NC(=O)[C@H](Cc1ccc(OS(=O)(=O)O)cc1)NC(=O)[C@H](CC(=O)O)NC(=O)CNC(=O)[C@H](N)Cc1ccc(O)cc1)C(=O)N[C@@H](CC(=O)O)C(=O)N[C@@H](Cc1ccc(C(=O)c2ccccc2)cc1)C(N)=O`, the EC50 came out at 150 nM. Turning to `CCCC[C@H](NC(=O)[C@H](Cc1ccc(OS(=O)(=O)O)cc1)NC(=O)[C@H](CC(=O)O)NC(=O)CNC(=O)[C@H](N)Cc1ccc(O)cc1)C(=O)NCC(=O)N[C@@H](Cc1c[nH]c2ccccc12)C(=O)N[C@@H](CCCC)C(=O)N[C@@H](CC(=O)O)C(=O)N[C@@H](Cc1ccc(C(=O)c2ccccc2)cc1)C(N)=O`, the EC50 was 280 nM.
